1 substance from US12171813B2, “Methods of and compositions for reducing gene expression and/or activity” (Christiana Care Gene Editing Institute, Inc., priority 2021, dated 2024) can be followed below.

One data set relates to EGFR gene. Put plainly: Screening of SureKill guide RNAs in the EGFR gene for ability to induce indels. Type of data set: cell-based. The following applies: transfections of individual guide RNAs (spCas9 RNP); PDMR human lung adenocarcinoma cells with EGFR L858R; DECODR. On the procedure: Human lung squamous cell carcinoma NCI-H1703 clone 44-25 cells were derived from NCI-H1703 cells (#CRL-5889) which were purchased from ATCC (Manassas, VA, USA). NCI-H1703 clone 44-25 cells contains R34G mutation (C 4 G) in NFE2L2 gene. H1703 clone 44-25 cells were cultured in ATCC formulation RPMI-1640 with 10% FBS. T75 flasks were used and cells were split 1:5 upon reaching 90% confluency. Human lung adenocarcinoma cells (Dist. Lot. No. LG0703-F948-PDC) were acquired from the National Institute of Health's National Cancer Institute's Patient-Derived Models Repository (PDMR). This PDMR cell line contains the L858R mutation (T 4 G) in the EGFR gene. The PDMR cells were maintained in Advanced DMEM/F12 media containing 10% FBS, 0.4 μg/mL hydrocortisone, 0.01 μg/mL EGF Recombinant Human Protein, 24 μg/mL adenine, and 2 mM L-Glutamine. T75s were used and cells were split 1:3 upon reaching 90% confluency. All cultures were maintained in cell culture incubators at 37° C. and 5% CO2.
Ribonucleoproteins (RNP) are complexed by incubating 250 pmol of purified synthetic gRNA (Synthego Corporation, Redwood City, CA) with 50 pmol of purified spCas9 (Synthego Corporation, Redwood City, CA) at room temperature in nuclease-free 1× TE buffer for 15 minutes.
Transfections were carried out using the Lonza Nuclefector 4d. Cultures in t75s at 90% confluence were split 1:2 24 hours prior to transfection. RNPs were complexed at 250:50 pmol for 30 minutes prior to transfection, during which time cells were harvested and counted. All reactions were 100 μL and contained 1 e6 cells. Lonza SF solution and Nucleofector program CM-130 were used in all transfections of the H1703 cell line. Lonza SE solution and Nucleofector program CA-137 were used in all transfections of the PDMR. After transfection, 500 μL of media that had been equilibrated to cell culture CO2 and temperature conditions was added to each 100 μL cuvettes. Cuvettes were then placed in the incubator. After 20 minutes, the entire content of each cuvette was seeded into 3 mL of media in a 6 well plate. After 72 hours, samples were dissociated using 200 μL Trypsin 0.25% for 5 minutes. 800 μL culture media was used to quench and split into 1.5 mL tubes each containing 500 μL of the sample. Tubes were spun at 300×g for 5 minutes. One of the tubes was placed in the −20° C. freezer and the other was resuspended in 500 μL of Trizol for RNA extraction and cDNA synthesis.
All sequencing was performed on the Applied Biosystems SeqStudio. The BigDye Terminator v3.1 Cycle Sequencing Kit was used to prepare samples for sequencing. Resulting sequences were analyzed with DECODR to determine indel rates (Bloh et al., CRISPR J. 4:120-31 (2021)).
Human EGFR is a frequently mutated gene that is associated with cancers. One of the most common mutations is L858R which results in the creation of a novel PAM site, making it a targetable sequence by CRISPR. Like the R34G mutation, the CRISPR designed to target the L858R mutation is not highly efficient on its own. By combining the L858R-targeting CRISPR with another CRISPR of high efficiency in a downstream intronic region, exon skipping can be induced, resulting in a higher efficiency of functional knockout than the L858R targeting CRISPR alone. To find a suitable gRNA to pair with the L858R targeting CRISPR, we selected the intron between exons 21 and 22 (FIG. 6). A series of gRNAs were created in this region and screened for their ability to induce indels, a measure of their activity using DECODR (Bloh et al., CRISPR J. 4:120-31 (2021)) (Table 3).
In Table 3, all sequences are listed from 5′ to 3′. Indel percent, a measure of CRISPR activity, is based on transfections of individual guide RNAs. All guide RNAs, with the exception of L858R, were designed in the intron between exons 21 and 22.

A further data set relates to EGFR. In words: cDNA PCR analysis of exon skipping / full-size transcript in EGFR. In kind it is cell-based, Human. Particulars: intron-targeting gRNA paired with L858R targeting CRISPR, compared to L858R targeting CRISPR alone. On the procedure:
After CRISPR reactions, total RNA was prepared, and cDNA synthesized for PCR amplification of the target region from EGFR. PCR-amplified DNA was then analyzed by electrophoresis through a 1% agarose gel for 75 minutes at 80v. DNA was stained with SYBR Safe. Lanes 1 and 13: NEB 2 Log Ladder; Lane 2: Scrambled gRNA; Lane 3: EGFR 21-22 SureKill gRNA 11 alone; Lane 4: EGFR 21-22 SureKill gRNA 13 alone; Lane 5: EGFR 21-22 SureKill gRNA 16 alone; Lane 6: EGFR 21-22 SureKill gRNA 17 alone; Lane 7: EGFR 21-22 SureKill gRNA 19 alone; Lane 8: EGFR 21-22 SureKill gRNA 22 alone; Lane 9: EGFR 21-22 SureKill gRNA 23 alone; Lane 10: EGFR 21-22 SureKill gRNA 27 alone; Lane 11: EGFR 21-22 SureKill gRNA 28 alone; Lane 12: EGFR 21-22 SureKill gRNA 29 alone. On the left side of the image are markers indicating DNA size in bp.
After CRISPR reactions, total RNA was prepared, and cDNA synthesized for semi-quantitative PCR amplification of the target region from EGFR. PCR amplification was performed for 25 cycles. PCR-amplified DNA was then analyzed by electrophoresis through a 1% agarose gel for 75 minutes at 80v. DNA was stained with SYBR Safe. […]
Transfections were carried out using the Lonza Nuclefector 4d. […] RNPs were complexed at 250:50 pmol for 30 minutes prior to transfection, during which time cells were harvested and counted. […]

On to “EGFR 21-22 SureKill gRNA 28: EGFR intron 21-22 guide RNA GCAGCCTGGTCCCTGGTGTC, SEQ ID NO:51 (listed as DNA, chemistry not given here)”, for which the indel % in the data set with EGFR gene was 97.6%. In the data set with EGFR, the “reduction in the full-size transcript (cDNA, semi-quantitative PCR 25 cycles)” value is “enhanced reduction in the full-size transcript”.
